Laboratory results as given in patent publication US12509437B2, “Substituted thiophene carboxamides and derivatives thereof as microbicides” (Bayer Aktiengesellschaft, priority 2019, dated 2025).
Like-named read-outs stand apart in the source and are kept apart here. Values belong to the compound of their own block, whether it stands above or below them.

Tests used:
[1] = system: Colletotrichum lindemuthianum; assay: Colletotrichum lindemuthianum in vitro cell test; format: cell-based; conditions: 144 h, 6 days incubation, read-out: efficacy (inhibition of fungal growth; no direct activity); for inhibition at 5 ppm: 5 ppm of active ingredient; for inhibition at 20 ppm: 20 ppm of active ingredient
Procedure: (§1) • Solvent: DMSO • Culture medium: 14.6 g anhydrous D-glucose (VWR), 7.1 g Mycological Peptone (Oxoid), 1.4 g granulated Yeast Extract (Merck), QSP 1 liter • Inoculum: spores suspension Fungicides were solubilized in DMSO and the solution used to prepare the required range of concentrations. The final concentration of DMSO used in the assay was ≤[…]1%. A spore suspension of C. lindemuthianum was prepared and diluted to the desired spore density. Fungicides were evaluated for their ability to inhibit spores germination and mycelium growth in liquid culture assay. The compounds were added in the desired concentration to the culture medium with spores. After 6 days incubation, fungi-toxicity of compounds was determined by spectrometric measurement of mycelium growth. Inhibition of fungal growth was determined by comparing the absorbance values in wells containing the fungicides with the absorbance in control wells without fungicides.

[2] = system: Xanthomonas campestris pv. campestris; assay: Xanthomonas campestris pv. campestris in vitro cell test; format: cell-based; conditions: 24 h of incubation, read-out: efficacy (inhibition of bacteria growth; no direct activity); for inhibition at 5 ppm: 5 ppm of active ingredient; for inhibition at 20 ppm: 20 ppm of active ingredient
Procedure: (§2) • Solvent: DMSO • Culture medium: LB broth medium (Luria Broth Miller) Sigma • Inoculum: bacteria suspension Compounds were solubilized in DMSO and the solution used to prepare the required range of concentrations. The final concentration of DMSO used in the assay was ≤1%. Inoculum was prepared from a pre-culture of bacteria grown in liquid medium and diluted to the desired optical density (OD). Compounds were evaluated for their ability to inhibit bacteria growth in liquid culture assay. The compounds were added in the desired concentrations to culture medium containing the bacteria suspension. After 24 h of incubation, the efficacy of compounds was determined by spectrometric measurement of bacteria growth. Inhibition was determined by comparing the absorbance values in wells containing the compounds with the absorbance in control wells without active ingredients.

[3] = system: Pseudomonas syringae pv. tomato; assay: Pseudomonas syringae pv. tomato in vitro cell test; format: cell-based; conditions: 20 ppm of active ingredient, 24 h of incubation, read-out: efficacy (inhibition of bacteria growth; no direct activity)
Procedure: as §2

[4] = system: salicylate responsive promoter sequence of the PR1 (pathogenesis-related protein I) gene (AT2G14610); assay: Induction of defense gene expression in Arabidopsis thaliana (PR1 promoter-GFP reporter plants); format: in vivo; conditions: 72 h, 3rd day after spraying, mock treated leaves set as 1.00, read-out: relative fluorescence value
Procedure: Arabidopsis thaliana reporter plants containing the coding sequence of a green fluorescent protein (GFP) linked to the salicylate responsive promoter sequence of the PR1 (pathogenesis-related protein I) gene (AT2G14610) were grown for five days and then sprayed with compounds. On the 3rd day after spraying, plant fluorescence was assessed with a MacroFluo instrument from Leica Microsystems (Wetzlar, Germany). Fluorescences were quantified with the Meta-Morph Microscopy Automation & Image Analysis Software (Molecular Devices, Sunnyvale, Calif., United States). Background fluorescence in mock treated leaves was set as 1.00.

[5] = system: Peronospora parasitica; assay: In vivo preventive test on Peronospora parasitica (Crucifer downy mildew) on cabbage; conditions: Hyaloperonospora parasitica, 120 h, sprayed 72 hours before inoculation, evaluated 5 days after inoculation, read-out: efficacy; for pest or weed control at 31 ppm: 31 ppm of active ingredient; for pest or weed control at 125 ppm: 125 ppm of active ingredient; for pest or weed control at 500 ppm: 500 ppm of active ingredient
Procedure: (§3) The tested active ingredients were prepared by homogenization in a mixture of acetone/Dimethyl sulfoxide/Tween®, and then diluted with water to obtain the desired active material concentration.
(§4) The young plants of cabbage were treated by spraying the active ingredient prepared as described above. Control plants were treated only with an aqueous solution of acetone/Dimethyl sulfoxide/Tween®.
After 72 hours, the plants were contaminated by spraying the leaves with an aqueous suspension of Peronospora parasitica spores. The contaminated cabbage plants were incubated for 5 days at 20° C. and at 100% relative humidity.
The test was evaluated 5 days after the inoculation. 0% means an efficacy which corresponds to that of the control plants while an efficacy of 100% means that no disease was observed.

[6] = system: Alternaria alternata; assay: Alternaria alternata in vitro cell test; format: cell-based; conditions: 120 h, 5 days incubation, read-out: efficacy (inhibition of fungal growth; no direct activity); for inhibition at 5 ppm: 5 ppm of active ingredient; for inhibition at 20 ppm: 20 ppm of active ingredient
Procedure: as §1, with “of A. alternata” for “of C. lindemuthianum”, “inhibit spore” for “inhibit spores”, “After 5” for “After 6”

[7] = system: Xanthomonas campestris pv. campestris; assay: In vivo preventive test on Xanthomonas campestris pv. campestris (black rot on cabbage); conditions: Xanthomonas campestris, sprayed 72 hours before inoculation, evaluated 8 or 10 days after inoculation, read-out: efficacy; for pest or weed control at 31 ppm: 31 ppm of active ingredient; for pest or weed control at 125 ppm: 125 ppm of active ingredient
Procedure: as §3, §4
After 72 hours, the plants were contaminated by spraying the leaves with an aqueous bacteria suspension of Xanthomonas campestris pv. campestris. The contaminated cabbage plants were incubated for 8 or 10 days at 27° C. at 95% relative humidity.
The test was evaluated 8 or 10 days after the inoculation. 0% means an efficacy which corresponds to that of the control plants while an efficacy of 100% means that no disease was observed.

[8] = LogP by HPLC on reversed phase columns (EEC directive 79/831 Annex V.A8); format: physicochemical; conditions: reversed phase HPLC columns
Summary of the method: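 Reversed-phase HPLC, calibrated with straight-chain alkan-2-ones (C3–C16) of known LogP; values by linear interpolation of retention times between successive alkanones. Multiple values from one method are joined by "+"; lambda-max taken from 200–400 nm UV spectra at chromatographic peaks.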

[9] = system: Uromyces appendiculatus; assay: In vivo preventive test on Uromyces appendiculatus (bean rust); conditions: 240 h, sprayed 72 hours before inoculation, evaluated 10 days after inoculation, read-out: efficacy; for pest or weed control at 31 ppm: 31 ppm of active ingredient; for pest or weed control at 125 ppm: 125 ppm of active ingredient; for pest or weed control at 500 ppm: 500 ppm of active ingredient
Procedure: as §3
(§5) The young plants of bean were treated by spraying the active ingredient prepared as described above. Control plants were treated only with an aqueous solution of acetone/Dimethyl sulfoxide/Tween®.
After 72 hours, the plants were contaminated by spraying the leaves with an aqueous suspension of Uromyces appendiculatus spores. The contaminated bean plants were incubated for 24 hours at 20° C. and at 100% relative humidity and then for 9 days at 20° C. and at 70-80% relative humidity.
The test was evaluated 10 days after the inoculation. 0% means an efficacy which corresponds to that of the control plants while an efficacy of 100% means that no disease was observed.

[10] = system: Colletotrichum lindemuthianum; assay: In vivo preventive test on Colletotrichum lindemuthianum (Anthracnose on bean); conditions: Colletotrichum lindemuthianum, 144 h, sprayed 72 hours before inoculation, evaluated 6 days after inoculation, read-out: efficacy
Procedure: as §3, §5
After 72 hours, the plants were contaminated by spraying the leaves with an aqueous suspension of Colletotrichum lindemuthianum spores. The contaminated bean plants were incubated for 24 hours at 20° C. and at 100% relative humidity and then for 5 days at 20° C. and at 90% relative humidity.
The test was evaluated 6 days after the inoculation. 0% means an efficacy which corresponds to that of the control plants while an efficacy of 100% means that no disease was observed.

chromatographic logP ([8]; method [a]): 4.07
Compound: CCOC(=O)C(NC(=O)c1sc(Cl)c(Cl)c1C)C(F)(F)F (stereo not drawn) [I.164]
inhibition at 5 ppm [1]: ≤ 30%
inhibition at 20 ppm [1]: ≤ 30%
inhibition at 5 ppm [2]: ≤ 30%
inhibition at 20 ppm [2]: ≤ 30%
inhibition at 20 ppm [3]: ≤ 30%
fold induction at 75 ppm [4]: > 2
fold induction at 300 ppm [4]: > 2
pest or weed control at 31 ppm [5]: 90 to 100%
pest or weed control at 125 ppm [5]: 90 to 100%
pest or weed control at 500 ppm [5]: ≥ 90%
inhibition at 5 ppm [6]: ≤ 30%
inhibition at 20 ppm [6]: ≤ 30%
pest or weed control at 31 ppm [7]: 80 to 89%
pest or weed control at 31 ppm [9]: 90 to 100%
pest or weed control at 125 ppm [9]: 90 to 100%

chromatographic logP ([8]; method [a]): 3.5
Compound: COC(=O)C1(NC(=O)c2sc(Cl)c(Cl)c2C)CCC1 [I.171]
inhibition at 5 ppm [1]: ≤ 30%
inhibition at 5 ppm [2]: ≤ 30%
inhibition at 20 ppm [2]: ≤ 30%
inhibition at 20 ppm [3]: ≤ 30%
fold induction at 75 ppm [4]: > 2
fold induction at 300 ppm [4]: > 2
pest or weed control at 31 ppm [5]: 90 to 100%
pest or weed control at 125 ppm [5]: 90 to 100%
inhibition at 5 ppm [6]: ≤ 30%
inhibition at 20 ppm [6]: ≤ 30%
pest or weed control at 125 ppm [7]: 70 to 79%
pest or weed control at 31 ppm [9]: 80 to 89%
pest or weed control at 125 ppm [9]: 90 to 100%

chromatographic logP ([8]; method [a]): 2.43
Compound: Cc1c(C(=O)NC(C)(C)C(=O)O)sc(Cl)c1Cl [I.174]
inhibition at 5 ppm [1]: ≤ 30%
inhibition at 20 ppm [1]: ≤ 30%
inhibition at 5 ppm [2]: ≤ 30%
inhibition at 20 ppm [2]: ≤ 30%
inhibition at 20 ppm [3]: ≤ 30%
fold induction at 75 ppm [4]: > 2
fold induction at 300 ppm [4]: > 2
pest or weed control at 125 ppm [5]: 90 to 100%
inhibition at 5 ppm [6]: ≤ 30%
inhibition at 20 ppm [6]: ≤ 30%
pest or weed control at 125 ppm [7]: 70 to 79%
pest or weed control at 31 ppm [9]: 90 to 100%
pest or weed control at 125 ppm [9]: 90 to 100%

chromatographic logP ([8]; method [a]): 1.73
Compound: Cc1c(C(=O)NC(CC(N)=O)C(=O)O)sc(Br)c1Br (stereo not drawn) [I.076]
inhibition at 5 ppm [1]: ≤ 30%
inhibition at 20 ppm [1]: ≤ 30%
inhibition at 5 ppm [2]: ≤ 30%
inhibition at 20 ppm [2]: ≤ 30%
inhibition at 20 ppm [3]: ≤ 30%
fold induction at 300 ppm [4]: > 2
pest or weed control at 125 ppm [5]: 90 to 100%
pest or weed control at 500 ppm [5]: 90 to 100%
inhibition at 5 ppm [6]: ≤ 30%
inhibition at 20 ppm [6]: ≤ 30%
pest or weed control at 31 ppm [7]: 70 to 79%
pest or weed control at 125 ppm [9]: 80 to 89%
pest or weed control at 500 ppm [9]: 90 to 100%

Second part, the compound before the results:

Compound: Cc1c(C(=O)NC(Cc2c[nH]c3ccccc23)C(=O)O)sc(Cl)c1Cl (stereo not drawn) [I.070]
inhibition at 5 ppm [1]: ≤ 30%
inhibition at 20 ppm [1]: ≤ 30%
inhibition at 5 ppm [2]: ≤ 30%
inhibition at 20 ppm [2]: ≤ 30%
inhibition at 20 ppm [3]: ≤ 30%
fold induction at 300 ppm [4]: > 2
pest or weed control at 31 ppm [5]: 70 to 79%
pest or weed control at 125 ppm [5]: 90 to 100%
pest or weed control at 500 ppm [5]: 90 to 100%
inhibition at 5 ppm [6]: ≤ 30%
inhibition at 20 ppm [6]: ≤ 30%
pest or weed control at 31 ppm [7]: 70 to 79%
pest or weed control at 125 ppm [7]: 80 to 89%
chromatographic logP ([8]; method [a]): 3.12
pest or weed control at 500 ppm [9]: 90 to 100%

Compound: CCOC(=O)C(Cc1c[nH]c2ccccc12)NC(=O)c1sc(Cl)c(Cl)c1C (stereo not drawn) [I.040]
inhibition at 5 ppm [2]: ≤ 30%
inhibition at 20 ppm [2]: ≤ 30%
inhibition at 20 ppm [3]: ≤ 30%
pest or weed control at 125 ppm ([10]; 125 ppm of active ingredient): 90 to 100%
pest or weed control at 500 ppm ([10]; 500 ppm of active ingredient): 90 to 100%
fold induction at 75 ppm [4]: > 2
fold induction at 300 ppm [4]: > 2
pest or weed control at 500 ppm [5]: 90 to 100%
chromatographic logP ([8]; method [a]): 4.08

Compound: CCSC(=O)C1(NC(=O)c2sc(Cl)c(Cl)c2C)CC1 [I.049, S-ethyl 1-{[(4,5-dichloro-3-methyl-2-thienyl)carbonyl]amino}cyclopropanecarbothioate]
inhibition at 5 ppm [1]: ≤ 30%
inhibition at 5 ppm [2]: ≤ 30%
inhibition at 20 ppm [2]: ≤ 30%
inhibition at 20 ppm [3]: ≤ 30%
fold induction at 75 ppm [4]: > 2
fold induction at 300 ppm [4]: > 2
pest or weed control at 31 ppm [5]: 90 to 100%
pest or weed control at 125 ppm [5]: 90 to 100%
pest or weed control at 500 ppm [5]: 90 to 100%
inhibition at 5 ppm [6]: ≤ 30%
pest or weed control at 31 ppm [7]: 80 to 89%
pest or weed control at 500 ppm ([7]; 500 ppm of active ingredient): 80 to 89%
chromatographic logP ([8]; preparation examples, method not indicated, read-out: Log P): 3.67
pest or weed control at 31 ppm [9]: 70 to 79%
pest or weed control at 125 ppm [9]: 90 to 100%
pest or weed control at 500 ppm [9]: 80 to 89%

Compound: COC(=O)[C@H](CCCNC(=N)N)NC(=O)c1sc(Br)c(Br)c1C [I.035]
inhibition at 5 ppm [1]: ≤ 30%
inhibition at 20 ppm [1]: ≤ 30%
inhibition at 5 ppm [2]: ≤ 30%
inhibition at 20 ppm [2]: ≤ 30%
inhibition at 20 ppm [3]: ≤ 30%
fold induction at 300 ppm [4]: > 2
pest or weed control at 125 ppm [5]: 70 to 79%
pest or weed control at 500 ppm [5]: 80 to 89%
inhibition at 5 ppm [6]: ≤ 30%
pest or weed control at 125 ppm [7]: 80 to 89%
chromatographic logP ([8]; method [a]): 1.74
pest or weed control at 125 ppm [9]: 80 to 89%
pest or weed control at 500 ppm [9]: 80 to 89%
